Where two headings read alike, the source gives them in different places.
Key:
[1] = target: T1, Human ATX protein (Homo sapiens, UniProt Q13822); experiment: Autotaxin (ATX) FRET assay with FS-3 substrate; assay type: biochemical
T1 construct: made in house
From the text: ATX (Autotaxin) is a 125 KDa glycoprotein with lysophospholipase D (LPLD) activity that generates the bioactive lipid lysophosphatidic acid (LPA) from lysophosphatidylcholine (LPC). The ATX biochemical assay utilizes a FRET (fluorescence resonance energy transfer) technology platform. […] ATX catalyzes the hydrolysis of the substrate which separates the dabsyl quencher from the fluorescein reporter, which becomes fluorescent. The reaction is monitored by a SpectraMax M5 (Molecular Devices, Sunnyvale, Calif.) with at excitation wavelength 485 nm and emission wavelength 535 nm.
Fatty acid free-BSA (Sigma A8806): 10 mg/mL in H2O, stored at 4° C.
2×ATX assay buffer: 100 mM Tris, 280 mM NaCl, 10 mM KCl, 2 mM CaCl2, 2 mM MgCl2, pH 7.4.
Human ATX protein: expressed and purified in house. Stored at −80° C.
Substrate FS-3 (Echelon, L-2000): 100 μg in 77.74 μL H2O (1 mM stock), stored at −20° C.
Compound dilution—All compounds were provided at 10 mM in 100% DMSO. In the first well, 2 μL of 10 mM compound was added to 78 μL of DMSO (1:40 dilution). In subsequent wells 3-fold dilution (total 10 dilutions) were performed.
1×ATX assay buffer was made up with a final concentration of 1 mg/mL fatty acid free-BSA using 2×ATX assay buffer, 10 mg/ml fatty acid free-BSA and ddH2O.
38 μL was added per well to the assay plate. The final concentration of ATX in the reaction as 1.0 μg/mL.
2 μL per well of compounds was transferred to provide the desired concentration. The plate was centrifuged, then incubated at room temperature for 30 minutes on the shaker.
FS-3 was diluted with 1×ATX assay buffer to a concentration of FS-3 of 10 μM (5×). Then, 10 μL was added per well to the assay plate. The final concentration of FS-3 in the reaction was 2 μM. The plate was centrifuged. The plate was kept shaking at room temperature for 2 hours. Because FS-3 substrate is light sensitive, plates were kept covered and protected from light.

[2] = target: S1P1 (Homo sapiens, UniProt P21453); experiment: S1P receptor activity assay (calcium flux, FLIPR TETRA), S1P1; assay type: cell-based
From the text: (§1) Agonist percentage activation determinations were obtained by assaying sample compounds and referencing the Emax control for each receptor profiled. Antagonist percentage inhibition determinations were obtained by assaying sample compounds and referencing the control EC80 wells for each receptor profiled. The samples were run using a “Single Addition” assay protocol for the agonist and antagonist assay run. The protocol design was as follows:
(§2) Master stock solution: Unless specified otherwise, all sample compounds were diluted in 100% anhydrous DMSO including all serial dilutions. All control wells contained identical solvent final concentrations as did the sample compound wells.
(§3) Compound plate for assay: The sample compounds were transferred from a master stock solution into a daughter plate that was used in the assay. Each sample compound was diluted into assay buffer (1×HBSS with 20 mM HEPES and 2.5 mM Probenecid) at an appropriate concentration to obtain final concentrations.
(§4) Sample compounds were plated in an eight-point, four-fold dilution series in duplicate with a top concentration of 10 μM. The concentrations described here reflect the final concentration of the compounds during the antagonist assay.
(§5) Reference agonists were handled as mentioned above serving as assay control. The reference agonists were handled as described above for Emax.
(§6) Assay was read for 180 seconds using the […] (This assay run added sample compounds and reference agonist to respective wells). At the completion of the first “Single Addition” assay run, assay plate was removed from the […] and placed at 25° C. for seven (7) minutes.
(§7) Using the EC80 values determined during the agonist assay, stimulated all pre-incubated sample compound and reference antagonist (if applicable) wells with EC80 of reference agonist. Read for 180 seconds using the […] (This assay added reference agonist to respective wells—then fluorescence measurements were collected to calculate percentage inhibition values).
(§8) All plates were subjected to appropriate baseline corrections. Once baseline corrections were processed, maximum fluorescence values were exported and data manipulated to calculate percentage activation, percentage inhibition and Z′.

[3] = target: T2, S1P4 (Homo sapiens, UniProt O95977); experiment: S1P receptor activity assay (calcium flux, FLIPR TETRA), S1P4; assay type: cell-based
T2 sequence (O95977 1-384): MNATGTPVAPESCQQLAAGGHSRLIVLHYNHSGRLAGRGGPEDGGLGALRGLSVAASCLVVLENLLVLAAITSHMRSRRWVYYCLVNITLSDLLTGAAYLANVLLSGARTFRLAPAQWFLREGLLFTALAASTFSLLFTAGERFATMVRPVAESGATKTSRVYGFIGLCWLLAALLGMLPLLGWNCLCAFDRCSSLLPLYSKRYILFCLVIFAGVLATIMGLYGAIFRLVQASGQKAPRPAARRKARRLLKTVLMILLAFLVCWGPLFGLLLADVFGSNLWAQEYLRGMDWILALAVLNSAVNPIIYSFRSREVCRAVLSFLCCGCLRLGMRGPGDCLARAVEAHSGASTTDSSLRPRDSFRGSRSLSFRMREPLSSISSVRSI
From the text: as §1, §2, §3, §4, §5, §6, §7, §8

[4] = target: S1P5 (Homo sapiens, UniProt Q9H228); experiment: S1P receptor activity assay (calcium flux, FLIPR TETRA), S1P5; assay type: cell-based
From the text: as §1, §2, §3, §4, §5, §6, §7, §8

[5] = FS-3 2 μM, ATX 1.0 μg/mL, 2 hours at room temperature, read-out: IC50 (ATX)
[6] = calcium flux, top concentration 10 μM, the >5 μM sentence says only 'for S1P1', read-out: IC50 for S1P1 agonist activity
[7] = calcium flux, top concentration 10 μM, the >5 μM sentence says only 'for S1P4', read-out: IC50 for S1P4 agonist activity
[8] = calcium flux, top concentration 10 μM, read-out: IC50 for S1P5

Sequence of S1P5 (Q9H228 whole entry): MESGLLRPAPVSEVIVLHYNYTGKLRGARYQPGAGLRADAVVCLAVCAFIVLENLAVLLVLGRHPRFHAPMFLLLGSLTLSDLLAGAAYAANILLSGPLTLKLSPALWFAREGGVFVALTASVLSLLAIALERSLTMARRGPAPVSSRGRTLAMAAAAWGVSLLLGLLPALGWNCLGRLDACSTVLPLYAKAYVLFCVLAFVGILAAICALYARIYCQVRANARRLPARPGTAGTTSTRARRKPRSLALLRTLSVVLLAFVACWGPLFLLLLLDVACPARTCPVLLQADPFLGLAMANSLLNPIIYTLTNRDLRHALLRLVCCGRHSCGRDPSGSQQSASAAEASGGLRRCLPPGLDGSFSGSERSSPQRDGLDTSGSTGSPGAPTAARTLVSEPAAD
Sequence of S1P1 (P21453 whole entry): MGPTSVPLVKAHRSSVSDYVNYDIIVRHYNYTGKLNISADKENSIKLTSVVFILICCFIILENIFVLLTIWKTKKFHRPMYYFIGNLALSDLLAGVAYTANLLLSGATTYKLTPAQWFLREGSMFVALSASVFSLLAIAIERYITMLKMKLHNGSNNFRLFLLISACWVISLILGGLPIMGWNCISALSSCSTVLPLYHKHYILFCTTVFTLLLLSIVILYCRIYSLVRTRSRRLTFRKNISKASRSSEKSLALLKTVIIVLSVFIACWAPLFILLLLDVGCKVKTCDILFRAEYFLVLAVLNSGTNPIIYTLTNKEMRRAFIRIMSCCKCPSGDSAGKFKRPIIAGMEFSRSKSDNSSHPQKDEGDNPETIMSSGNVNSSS

In the case of `CC(C)(C)[C@H]1CC[C@H](Oc2ccc(N3CCN(CC45CCC(C(=O)O)(CC4)CC5)CC3)cc2)CC1` [Example 19, 4-((4-(4-((trans-4-(tert-Butyl)cyclohexyl)oxy)phenyl)piperazin-1-yl)methyl)bicyclo[2.2.2]octane-1-carboxylic acid], the IC50 [1, 5] is reported as no more than 5 µM, the IC50 [2, 6] is reported as greater than 5 µM and the IC50 [3, 7] is reported as no more than 2 µM. The IC50 [4, 8] was greater than 5 µM.

In the case of `CCCCCCCCOc1ccc(N2CCN(CCC(=O)O)CC2)nn1` [Example 20, 3-(4-(6-(Octyloxy)pyridazin-3-yl)piperazin-1-yl)propanoic acid], the IC50 [1, 5] is reported as 5 to 10 µM, the IC50 [2, 6] is reported as greater than 5 µM and the IC50 [3, 7] is reported as 2 to 5 µM. For the same compound, the IC50 [4, 8] was greater than 5 µM.

`CCCCCCCCOc1cnc(N2CCN(CCC(=O)O)CC2)nc1` [Example 21, 3-(4-(5-(Octyloxy)pyrimidin-2-yl)piperazin-1-yl)propanoic acid] was tested, and the IC50 [1, 5] was 5 to 10 µM, the IC50 [2, 6] was greater than 5 µM and the IC50 [3, 7] was no more than 2 µM. The IC50 [4, 8] was greater than 5 µM.

`CCCCCCCCOc1ccc(C2CCCN(C3CCC(C(=O)O)CC3)C2)cc1` (stereo not drawn) [Example 26, 4-(3-(4-(Octyloxy)phenyl)piperidin-1-yl)cyclohexanecarboxylic acid] gave an IC50 [1, 5] of 5 to 10 µM, an IC50 [2, 6] greater than 5 µM and an IC50 [3, 7] of 2 to 5 µM. For the same compound, the IC50 [4, 8] was greater than 5 µM.

Work on `CC[C@H]1CC[C@H](Oc2ccc(C3=CCN(CCC(=O)O)CC3)cc2)CC1` [Example 27, 3-(4-(4-((trans-4-Ethylcyclohexyl)oxy)phenyl)-5,6-dihydropyridin-1(2H)-yl)propanoic acid] yielded an IC50 [1, 5] of 5 to 10 µM, an IC50 [2] greater than 5 µM and an IC50 [3] greater than 5 µM. For the same compound, the IC50 [4, 8] was greater than 5 µM.

With `CC[C@H]1CC[C@H](Oc2ccc(C3CCN(CCC(=O)O)CC3)cc2)CC1` [Example 28, 3-(4-(4-((trans-4-ethylcyclohexyl)oxy)phenyl)piperidin-1-yl)propanoic acid] the IC50 [1, 5] was greater than 10 µM, the IC50 [2, 6] was greater than 5 µM and the IC50 [3, 7] was greater than 5 µM. It also gave an IC50 [4, 8] greater than 5 µM.

`CC[C@H]1CC[C@H](Oc2ccc(C3=CCN(CCCC(=O)O)CC3)cc2)CC1` [Example 29, 4-(4-(4-((trans-4-Ethylcyclohexyl)oxy)phenyl)-5,6-dihydropyridin-1(2H)-yl)butanoic acid] gave an IC50 [1, 5] greater than 10 µM, an IC50 [2] greater than 5 µM and an IC50 [3] of no more than 2 µM. For the same compound, the IC50 [4, 8] was greater than 5 µM.

Compound `CC[C@H]1CC[C@H](Oc2ccc(C3CCN(CCCC(=O)O)CC3)cc2)CC1` [Example 30, 4-(4-(4-((trans-4-Ethylcyclohexyl)oxy)phenyl)piperidin-1-yl)butanoic acid] has an IC50 [1, 5] greater than 10 µM, an IC50 [2, 6] greater than 5 µM and an IC50 [3, 7] of no more than 2 µM. It also gave an IC50 [4, 8] greater than 5 µM.

`CC[C@H]1CC[C@H](Oc2ccc(C3=CCN(CCCCC(=O)O)CC3)cc2)CC1` [Example 31, 5-(4-(4-((trans-4-Ethylcyclohexyl)oxy)phenyl)-5,6-dihydropyridin-1(2H)-yl)pentanoic acid] was tested, and the IC50 [1, 5] was greater than 10 µM, the IC50 [2] was greater than 5 µM and the IC50 [3] was no more than 2 µM. The IC50 [4, 8] was greater than 5 µM.

For `CC[C@H]1CC[C@H](Oc2ccc(C3CCN(CCCCC(=O)O)CC3)cc2)CC1` [Example 32, 5-(4-(4-((trans-4-Ethylcyclohexyl)oxy)phenyl)piperidin-1-yl)pentanoic acid], the IC50 [1, 5] was no more than 5 µM, the IC50 [2, 6] was greater than 5 µM and the IC50 [3, 7] was greater than 5 µM. It also gave an IC50 [4, 8] greater than 5 µM.

`CC[C@H]1CC[C@@H](Oc2ccc(C3=CCN(CCC(=O)O)CC3)cc2)CC1` [Example 33, 3-(4-(4-((cis-4-Ethylcyclohexyl)oxy)phenyl)-5,6-dihydropyridin-1(2H)-yl)propanoic acid] showed an IC50 [1] greater than 10 µM, an IC50 [2] greater than 5 µM and an IC50 [3] of no more than 2 µM. It also gave an IC50 [4] greater than 5 µM.

`CC[C@H]1CC[C@@H](Oc2ccc(C3CCN(CCC(=O)O)CC3)cc2)CC1` [Example 34, 3-(4-(4-((cis-4-Ethylcyclohexyl)oxy)phenyl)piperidin-1-yl)propanoic acid] was tested, and the IC50 [1, 5] was greater than 10 µM, the IC50 [2, 6] was greater than 5 µM and the IC50 [3, 7] was greater than 5 µM. The IC50 [4, 8] was greater than 5 µM.

Compound `CC[C@H]1CC[C@@H](Oc2ccc(C3=CCN(CCCC(=O)O)CC3)cc2)CC1` [Example 35, 4-(4-(4-((cis-4-Ethylcyclohexyl)oxy)phenyl)-5,6-dihydropyridin-1(2H)-yl)butanoic acid] has an IC50 [1, 5] greater than 10 µM, an IC50 [2] greater than 5 µM and an IC50 [3] of no more than 2 µM. For the same compound, the IC50 [4, 8] was greater than 5 µM.

`CC[C@H]1CC[C@@H](Oc2ccc(C3CCN(CCCC(=O)O)CC3)cc2)CC1` [Example 36, 4-(4-(4-((cis-4-Ethylcyclohexyl)oxy)phenyl)piperidin-1-yl)butanoic acid] was tested, and the IC50 [1, 5] was 5 to 10 µM, the IC50 [2, 6] was greater than 5 µM and the IC50 [3, 7] was 2 to 5 µM. For the same compound, the IC50 [4, 8] was greater than 5 µM.

`CC[C@H]1CC[C@@H](Oc2ccc(C3=CCN(CCCCC(=O)O)CC3)cc2)CC1` [Example 37, 5-(4-(4-((cis-4-Ethylcyclohexyl)oxy)phenyl)-5,6-dihydropyridin-1(2H)-yl)pentanoic acid] gave an IC50 [1, 5] of no more than 5 µM, an IC50 [2] of no more than 2 µM and an IC50 [3] of no more than 2 µM. For the same compound, the IC50 [4, 8] was 2 to 5 µM.

`CC[C@H]1CC[C@@H](Oc2ccc(C3CCN(CCCCC(=O)O)CC3)cc2)CC1` [Example 38, 5-(4-(4-((cis-4-Ethylcyclohexyl)oxy)phenyl)piperidin-1-yl)pentanoic acid] showed an IC50 [1, 5] greater than 10 µM, an IC50 [2, 6] of 2 to 5 µM and an IC50 [3, 7] of no more than 2 µM. For the same compound, the IC50 [4, 8] was greater than 5 µM.

`O=C(O)CCN1CC=C(c2ccc(OC3CCC4(CCCC4)CC3)cc2)CC1` [Example 39, 3-(4-(4-(Spiro[4.5]decan-8-yloxy)phenyl)-5,6-dihydropyridin-1(2H)-yl)propanoic acid] was tested, and the IC50 [1] was greater than 10 µM, the IC50 [2] was greater than 5 µM and the IC50 [3] was 2 to 5 µM. It also gave an IC50 [4] greater than 5 µM.

For `O=C(O)CCN1CCC(c2ccc(OC3CCC4(CCCC4)CC3)cc2)CC1` [Example 40, 3-(4-(4-(Spiro[4.5]decan-8-yloxy)phenyl)piperidin-1-yl)propanoic acid], the IC50 [1, 5] was no more than 5 µM, the IC50 [2, 6] was 2 to 5 µM and the IC50 [3, 7] was no more than 2 µM. It also gave an IC50 [4, 8] of no more than 2 µM.

`O=C(O)CCCN1CC=C(c2ccc(OC3CCC4(CCCC4)CC3)cc2)CC1` [Example 41, 4-(4-(4-(Spiro[4.5]decan-8-yloxy)phenyl)-5,6-dihydropyridin-1(2H)-yl)butanoic acid] gave an IC50 [1, 5] of no more than 5 µM, an IC50 [2, 6] greater than 5 µM and an IC50 [3, 7] of 2 to 5 µM. It also gave an IC50 [4, 8] of 2 to 5 µM.

Compound `O=C(O)CCCN1CCC(c2ccc(OC3CCC4(CCCC4)CC3)cc2)CC1` [Example 42, 4-(4-(4-(Spiro[4.5]decan-8-yloxy)phenyl)piperidin-1-yl)butanoic acid] has an IC50 [1, 5] of 5 to 10 µM, an IC50 [2, 6] greater than 5 µM and an IC50 [3, 7] of 2 to 5 µM. The IC50 [4, 8] was greater than 5 µM.

With `O=C(O)CCCCN1CC=C(c2ccc(OC3CCC4(CCCC4)CC3)cc2)CC1` [Example 43, 5-(4-(4-(Spiro[4.5]decan-8-yloxy)phenyl)-5,6-dihydropyridin-1(2H)-yl)pentanoic acid] the IC50 [1, 5] was greater than 10 µM, the IC50 [2] was greater than 5 µM and the IC50 [3] was 2 to 5 µM. It also gave an IC50 [4, 8] greater than 5 µM.

Source: patent US9850206B2, “S1P and/or ATX modulating agents” (BIOGEN MA INC., priority 2012, dated 2017)
